Experiments:
[1] = tested on: PD markers MEPCE, MCL, MYC, HEXIM, LARP7 and WHSC2; assay: Affymetrix U133-Plus-2 microarray gene expression profiling of CDKI treated cell lines; type: cell-based; settings: A375 cells, FIG. 2
Protocol: Five cell lines were analyzed: NCI-H929, a multiple myeloma cell line (ATCC Cat. # CRL-9068); NCI-H441, a lung papillary adenocarcinoma cell line (ATCC Cat. # HTB-174); A375, a melanoma cell line (ATCC Cat. # CRL-1619); A2058, a melanoma cell line (ATCC Cat. #CRL-1147) and U-87-MG, a glioblastoma cell line (ATCC Cat. #HTB-14). Cell lines were grown in the medium recommended by ATCC and treated as follows:
NCI-H441 and A375: 0 timepoint: Untreated, harvested when compound is added to the other plates.
2 hours: DMSO, 200 nM CKDI(8) or 500 nM CKDI(8) or 500 nM CKDI(7) (3 plates each, total 12 plates).
8 hours: DMSO, 200 nM CKDI(8) or 500 nM CKDI (8) or 500 nM CKDI(7) (3 plates each, total 12 plates).
16 hours: DMSO, 200 nM CKDI(8) or 500 nM CKDI(8) or 500 nM CKDI(7) (3 plates each, total 12 plates). […]
An average expression level was determined for each probeset at each time-point and treatment condition by computing the geomean expression level across replicate tumors. […] The p-value was determined by a two-tailed t-test assuming unequal variances (Satterwaithe's approximation). […]
This is shown in FIG. 2, where A375 cells that are sensitive to CDKI were treated with CDKI(7) and the reduction of gene expression was determined at 2, 8 and 16 hours of treatment.

[2] = tested on: MYC; assay: Dog toxicology study, TaqMan mRNA in white blood cells after CDKI(7): MYC; type: in vivo
Protocol: (§1) As part of a dog toxicology study, CDKI(7) was administered to dogs. White blood cells were harvested and MEPCE, MYC and MCL1 gene expression was assessed as PD markers. mRNA levels of each of these PD markers were measured by TaqMan® at various time points after CDKI(7) treatment.
(§2) The study had three groups of three dogs each. Dogs in Group 1 (#101, #102, and #103) were treated with CDKI(7) at 0.5 mg/kg, dogs in Group 2 (#104, #105, and #106) were treated at 1 mg/kg CDKI(7) and dogs in Group 3 (#107, #108, and #109) were treated at 2 mg/kg CDKI(7). Samples were collected before treatment (0 hour), 3 hours, 7 hours and 24 hours after treatment for a total of 12 samples per group. Blood samples were received frozen in QIAGEN RNA protect® Animal Blood tubes (Cat. # 76554 QIAGEN-Valencia, Calif., USA). RNA samples were extracted using the QIAGEN RNeasy® Protect Animal Blood kit (Cat. # 73224). RNA samples were quantified using the RNA Quant-iT RNA® assay from Invitrogen (Cat. # Q32852 Invitrogen—Grand Island, N.Y., USA) and read on an Invitrogen Qubit fluorometer® (Cat. # Q32857). First strand cDNA synthesis was performed on 500 ng of RNA in a reaction volume of 20 μl using a High Capacity cDNA Reverse Transcription Kit® from Applied Biosystems (Cat. # 4368814 Applied Biosystems, Carlsbad, Calif., USA). The cDNA samples were then diluted to obtain a 10 ng cDNA input for the TaqMan® reaction. TaqMan® reactions were run in triplicates using a TaqMan® Gene Expression Master Mix from Applied Biosystems (Cat. # 4369016) on an ABI 7500® machine. The 18S rRNA level was used as an endogenous control for variations in cDNA input. The relative quantification method was used to analyze the data; this method uses one sample as a calibrator sample and express mRNA levels relative to that sample. The results were expressed as RQ values (Relative Quantification) with RQ Min and RQ Max values determining a 95% confidence interval for the real RQ value. The samples were grouped according to the dose and each group was treated as a separate experiment with one of the pre-dose samples used as a calibrator sample. The logarithm of the RQ values are plotted so that increases or decreases from the initial value can be more easily represented; on a logarithmic scale: a 10-fold increase or 10-fold decrease in RQ value are represented as +1 and −1 respectively.
The MYC transcription factor is a known oncogene and previous Examples have shown that its mRNA is short-lived and sensitive to CDK9 inhibition (see FIG. 2). The MYC mRNA levels were determined by TaqMan® using the relative quantification method. The calibrator samples are dog #101 at 0 hour timepoint for the 0.5 mg/kg dose of CDKI(7), dog #104 at 0 hour timepoint for the 1 mg/kg CDKI(7) dose and dog #107 at 0 hour timepoint for the 2 mg/kg CDKI(7) dose. The logarithm (base 10) of the RQ values is plotted with the error bars representing the 95% confidence interval.

[3] = tested on: MCL1; assay: Dog toxicology study, TaqMan mRNA in white blood cells after CDKI(7): MCL1; type: in vivo
Protocol: as §1, §2
The MCL1 gene encodes a pro-survival factor that is often amplified in cancer and we have previously shown that its mRNA is short-lived and sensitive to CDK9 inhibition (see FIG. 2). The mRNA levels were determined by TaqMan® using the relative quantification method. The calibrator samples are dog #101 at 0 hour timepoint for the 0.5 mg/kg dose of CDKI(7), dog #104 at 0 hour timepoint for the 1 mg/kg dose and dog #107 at 0 hour timepoint for the 2 mg/kg dose. The logarithm (base 10) of the RQ values is plotted with the error bars representing the 95% confidence interval.

[4] = 2 mg/kg, at 3 hours, all three dogs

O=C(Nc1cc(-c2cccc(NCC3CCOCC3)n2)c(Cl)cn1)[C@@H]1CCCNC1 [CDKI(7)]
expression of the PD markers MEPCE, MCL, MYC, HEXIM, LARP7 and WHSC2 ([1]; microarray, 2, 8 and 16 hours of treatment): reduced
time point of greatest amount of reduction of MEPCE expression ([1]; microarray): 8 h
MYC mRNA regulation ([2]; 0.5 mg/kg): no significant down regulation
increase of MYC mRNA ([2]; 1 mg/kg, 3 or 7 hour time points): 2 fold
MYC mRNA regulation ([2]; 2 mg/kg, FIG. 7): consistent down regulation
maximum down regulation of MYC mRNA [2, 4]: 3.8 fold
dogs showing MYC down regulation ([2]; 2 mg/kg, at 7 hours): 2 out of three
MYC mRNA levels by 24 hours ([2]; all doses, 24 hours): trended back to pre-treatment levels
MCL1 mRNA regulation ([3]; 0.5 mg/kg): no significant down regulation
increase of MCL1 mRNA ([3]; 1 mg/kg, 7 hour time point, two out of three dogs): 2 fold
MCL1 down regulation at 7 hours ([3]; 2 mg/kg, 7 hours): not at 7 hours
MCL1 mRNA regulation ([3]; 2 mg/kg, FIG. 8): consistent down regulation
maximum down regulation of MCL1 mRNA [3, 4]: 2.7 fold

Source: patent US20140005070A1, “MARKERS ASSOCIATED WITH CYCLIN-DEPENDENT KINASE INHIBITORS” (Novartis AG, priority 2011, published 2014)
